Results as given in ChEMBL document CHEMBL1201862, “PubChem BioAssay data set” (2004).
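Step 1: Grow cells in 96-well plates. Step 2: Expose to compound for 48 hours at 5 concentrations. Step 3: Interpolate endpoints linearly; if unreached, use highest concentration. The concentration for 50% growth inhibition is given as GI50.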 Calls of active or inactive are those of the source. Rule as the data show it: active = GI50 up to about 1.1 µM and inactive = higher.

What was measured:
Experiment in all cases: DTP human tumour cell line panel, 48 h
[1] = test system: 786-0
[2] = test system: A498
[3] = test system: A549
[4] = test system: ACHN
[5] = test system: BT-549
[6] = test system: CAKI-1
[7] = test system: CCRF-CEM
[8] = test system: COLO 205
[9] = test system: DU-145
[10] = test system: EKVX
[11] = test system: HCC 2998
[12] = test system: HCT-116
[13] = test system: HCT-15
[14] = test system: HL-60
[15] = test system: HOP-62
[16] = test system: HOP-92
[17] = test system: HT-29
[18] = test system: Hs-578T
[19] = test system: IGROV-1
[20] = test system: K562
[21] = test system: KM12
[22] = test system: LOX IMVI
[23] = test system: M14
[24] = test system: MCF7
[25] = test system: MDA-MB-231
[26] = test system: MDA-MB-435
[27] = test system: MDA-N
[28] = test system: MOLT-4
[29] = test system: Malme-3M
[30] = test system: NCI-H226
[31] = test system: NCI-H23
[32] = test system: NCI-H460
[33] = test system: NCI-H522
[34] = test system: NCI/ADR-RES
[35] = test system: OVCAR-3
[36] = test system: OVCAR-4
[37] = test system: OVCAR-5
[38] = test system: OVCAR-8
[39] = test system: PC-3
[40] = test system: RPMI-8226
[41] = test system: RXF 393
[42] = test system: SF-268
[43] = test system: SF-295
[44] = test system: SF-539
[45] = test system: SK-MEL-28
[46] = test system: SK-MEL-2
[47] = test system: SK-MEL-5
[48] = test system: SK-OV-3
[49] = test system: SN12C
[50] = test system: SNB-19
[51] = test system: SNB-75
[52] = test system: SW-620
[53] = test system: T47D
[54] = test system: TK-10
[55] = test system: U-251
[56] = test system: UACC-257
[57] = test system: UACC-62
[58] = test system: UO-31

Which GI50 [1] does the source give for `CC(C)(C)OC(=O)NCCC1SC2C=CC1C2` (centres undefined) here?
Its GI50 is > 100 µM (inactive).

And the GI50 [2]?
The GI50 was > 100 µM (inactive).

And the GI50 [3]?
Its GI50 is > 100 µM (inactive).

And the GI50 [4]?
The GI50 was > 100 µM (inactive).

And the GI50 [5]?
Its GI50 is > 100 µM (inactive).

What about the GI50 [6] of the same compound?
Its GI50 is > 100 µM (inactive).

What about the GI50 [7] of the same compound?
The GI50 was > 100 µM (inactive).

And the GI50 [8]?
The GI50 was > 100 µM (inactive).

And the GI50 [9]?
The GI50 was > 100 µM (inactive).

What about the GI50 [10] of the same compound?
The GI50 was > 100 µM (inactive).

What about the GI50 [11] of the same compound?
Its GI50 is > 100 µM (inactive).

What about the GI50 [12] of the same compound?
Its GI50 is > 100 µM (inactive).

And the GI50 [13]?
The GI50 was > 100 µM.

And the GI50 [14]?
Its GI50 is > 100 µM (inactive).

What about the GI50 [15] of the same compound?
Its GI50 is > 100 µM (inactive).

And the GI50 [16]?
The GI50 was > 100 µM (inactive).

What about the GI50 [17] of the same compound?
The GI50 was > 100 µM (inactive).

And the GI50 [18]?
Its GI50 is > 100 µM (inactive).

What about the GI50 [19] of the same compound?
Its GI50 is > 100 µM (inactive).

What about the GI50 [20] of the same compound?
Its GI50 is > 100 µM (inactive).

And the GI50 [21]?
The GI50 was > 100 µM (inactive).

What about the GI50 [22] of the same compound?
The GI50 was > 100 µM (inactive).

What about the GI50 [23] of the same compound?
Its GI50 is > 100 µM (inactive).

And the GI50 [24]?
Its GI50 is > 100 µM (inactive).

What about the GI50 [25] of the same compound?
Its GI50 is > 100 µM (inactive).

What about the GI50 [26] of the same compound?
The GI50 was > 100 µM (inactive).

And the GI50 [27]?
Its GI50 is > 100 µM (inactive).

What about the GI50 [28] of the same compound?
Its GI50 is > 100 µM (inactive).

What about the GI50 [29] of the same compound?
Its GI50 is > 100 µM (inactive).

What about the GI50 [30] of the same compound?
The GI50 was > 100 µM (inactive).

What about the GI50 [31] of the same compound?
The GI50 was > 100 µM (inactive).

What about the GI50 [32] of the same compound?
The GI50 was > 100 µM (inactive).

And the GI50 [33]?
Its GI50 is > 100 µM (inactive).

And the GI50 [34]?
The GI50 was > 100 µM (inactive).

What about the GI50 [35] of the same compound?
The GI50 was > 100 µM (inactive).

And the GI50 [36]?
The GI50 was > 100 µM (inactive).

What about the GI50 [37] of the same compound?
Its GI50 is > 100 µM (inactive).

What about the GI50 [38] of the same compound?
Its GI50 is > 100 µM (inactive).

And the GI50 [39]?
The GI50 was > 100 µM (inactive).

And the GI50 [40]?
The GI50 was > 100 µM (inactive).

What about the GI50 [41] of the same compound?
The GI50 was > 100 µM (inactive).

And the GI50 [42]?
Its GI50 is > 100 µM (inactive).

What about the GI50 [43] of the same compound?
Its GI50 is > 100 µM (inactive).

And the GI50 [44]?
Its GI50 is > 100 µM (inactive).

What about the GI50 [45] of the same compound?
The GI50 was > 100 µM (inactive).

And the GI50 [46]?
Its GI50 is > 100 µM (inactive).

What about the GI50 [47] of the same compound?
The GI50 was 83.2 µM (inactive).

What about the GI50 [48] of the same compound?
Its GI50 is > 100 µM (inactive).

And the GI50 [49]?
The GI50 was > 100 µM (inactive).

What about the GI50 [50] of the same compound?
The GI50 was > 100 µM (inactive).

What about the GI50 [51] of the same compound?
Its GI50 is > 100 µM (inactive).

And the GI50 [52]?
The GI50 was > 100 µM (inactive).

And the GI50 [53]?
Its GI50 is 99.3 µM (inactive).

What about the GI50 [54] of the same compound?
The GI50 was > 100 µM (inactive).

What about the GI50 [55] of the same compound?
The GI50 was > 100 µM (inactive).

What about the GI50 [56] of the same compound?
Its GI50 is > 100 µM (inactive).

What about the GI50 [57] of the same compound?
Its GI50 is > 100 µM (inactive).

What about the GI50 [58] of the same compound?
The GI50 was > 100 µM (inactive).

With `CCOC(=O)/C=C\c1c(Cl)n(-c2ccccc2)c(=O)n(-c2ccccc2)c1=O` as the compound, how does the GI50 [1] read?
The GI50 was 20.3 µM (inactive).

And the GI50 [2]?
The GI50 was 21.3 µM (inactive).

What about the GI50 [3] of the same compound?
The GI50 was 25.1 µM (inactive).

And the GI50 [4]?
Its GI50 is 20.7 µM (inactive).

What about the GI50 [5] of the same compound?
The GI50 was 20.2 µM (inactive).

What about the GI50 [6] of the same compound?
Its GI50 is 19.5 µM (inactive).

And the GI50 [7]?
Its GI50 is 21.9 µM (inactive).

And the GI50 [8]?
The GI50 was 18.5 µM (inactive).

And the GI50 [9]?
The GI50 was 18.8 µM (inactive).

And the GI50 [10]?
The GI50 was 21 µM (inactive).

And the GI50 [11]?
The GI50 was 18.5 µM (inactive).

And the GI50 [12]?
The GI50 was 23.8 µM (inactive).

And the GI50 [13]?
The GI50 was 19.8 µM.

What about the GI50 [14] of the same compound?
Its GI50 is 4.63 µM (inactive).

What about the GI50 [15] of the same compound?
The GI50 was 20.8 µM (inactive).

What about the GI50 [16] of the same compound?
The GI50 was 15.8 µM (inactive).

What about the GI50 [17] of the same compound?
Its GI50 is 19 µM (inactive).

And the GI50 [18]?
The GI50 was 27.3 µM (inactive).

And the GI50 [19]?
Its GI50 is 17.6 µM (inactive).

And the GI50 [21]?
The GI50 was 19.1 µM (inactive).

What about the GI50 [22] of the same compound?
The GI50 was 22.6 µM (inactive).

What about the GI50 [23] of the same compound?
Its GI50 is 18.7 µM (inactive).

What about the GI50 [24] of the same compound?
Its GI50 is 22.6 µM (inactive).

And the GI50 [25]?
Its GI50 is 21.2 µM (inactive).

And the GI50 [26]?
Its GI50 is 22.1 µM (inactive).

And the GI50 [27]?
Its GI50 is 17 µM (inactive).

What about the GI50 [28] of the same compound?
The GI50 was 38.5 µM (inactive).

What about the GI50 [29] of the same compound?
The GI50 was 24.5 µM (inactive).

What about the GI50 [30] of the same compound?
Its GI50 is 20.7 µM (inactive).

What about the GI50 [31] of the same compound?
Its GI50 is 21.7 µM (inactive).

And the GI50 [32]?
The GI50 was 18 µM (inactive).

What about the GI50 [33] of the same compound?
The GI50 was 18.1 µM (inactive).

What about the GI50 [34] of the same compound?
The GI50 was 26.5 µM (inactive).

What about the GI50 [35] of the same compound?
Its GI50 is 19.3 µM (inactive).

What about the GI50 [36] of the same compound?
The GI50 was 30 µM (inactive).

And the GI50 [37]?
The GI50 was 20.6 µM (inactive).

What about the GI50 [38] of the same compound?
The GI50 was 17.4 µM (inactive).

What about the GI50 [39] of the same compound?
Its GI50 is 18.7 µM (inactive).

What about the GI50 [40] of the same compound?
Its GI50 is > 10 µM (inactive).

And the GI50 [41]?
Its GI50 is 17.9 µM (inactive).

What about the GI50 [42] of the same compound?
The GI50 was 20.7 µM (inactive).

And the GI50 [43]?
Its GI50 is 21.9 µM (inactive).

And the GI50 [44]?
The GI50 was 17.2 µM (inactive).

And the GI50 [45]?
The GI50 was 18.9 µM (inactive).

And the GI50 [46]?
Its GI50 is 17.7 µM (inactive).

And the GI50 [48]?
The GI50 was 22.2 µM (inactive).

And the GI50 [49]?
Its GI50 is 19.6 µM (inactive).

What about the GI50 [50] of the same compound?
Its GI50 is 16 µM (inactive).

And the GI50 [51]?
Its GI50 is 14.9 µM (inactive).

What about the GI50 [52] of the same compound?
The GI50 was 23.8 µM (inactive).

And the GI50 [53]?
The GI50 was 20.2 µM (inactive).

And the GI50 [54]?
The GI50 was 18.1 µM (inactive).

What about the GI50 [55] of the same compound?
Its GI50 is 32 µM (inactive).

And the GI50 [56]?
Its GI50 is 18.6 µM (inactive).

What about the GI50 [57] of the same compound?
Its GI50 is 18.3 µM (inactive).

And the GI50 [58]?
Its GI50 is 18.8 µM (inactive).
